{"source": "patent US7892831B2", "about": "“Method for in vitro mass culture of Aloe vera” (priority 2006, dated 2011)", "system": "regenerated Aloe vera shoots", "assay": "in vitro rooting of regenerated Aloe vera shoots", "format": "cell-based, Aloe vera (Aloe barbadensis)", "details": "MS supplemented with IAA (0.5, 1.0 or 2.0 mg/L); hormone-free media gave 100% rooting in 3 weeks", "experimental": "Regenerated shoots were rooted in both media containing indole acetic acid (0.5, 1.0, or 2.0 mg/L LAA) and MS media lacking any hormones. Shoots were more successfully rooted in the MS media lacking hormones. The culture conditions were the same as those used for initiation."}
{"substance": "indole acetic acid [IAA]", "values": [{"measurement": "rooting of shoots", "result": "no rooting was observed"}]}
